Consider one molecule from US9944583B2, “Methods for ameliorating and preventing central nervous system inflammation” (THE REGENTS OF THE UNIVERSITY OF CALIFORNIA, priority 2007, dated 2018).

One experiment relates to NADPH oxidase (Nox). Nature of the experiment: Nox activity in synaptosomes by NADPH-dependent oxygen consumption (oximetry). In kind it is biochemical, mouse. The protocol: Synaptosomal preparations. […] Mice were euthanized by exposure to a lethal dose of inhaled halothane, followed by cervical dislocation. Brains were rapidly removed, cortices dissected and homogenized in 10 volumes of ice-cold isolation buffer (0.32M sucrose, 1 mM EDTA, 10 mM Tris-HCl buffer, pH 7.4, 10 mM glucose). The homogenate was centrifuged at 3100 rpm for 3 min at 4° C., and the supernatant collected, and the pellet was re-homogenized in half the volume of isolation buffer and centrifuged again. Synaptosomal were then isolated as described (see reference 30, below) modified as follows, the pooled supernatants were mixed with PERCOLL™ (Sigma, St. Louis, Mo.) to a final concentration of 15%, and then layered onto a step gradient of 23% and 40% PERCOLL™, and centrifuged at 16,000 rpm for 5 minutes at 4° C. The uppermost band was extracted, rinsed in isolation buffer, centrifuged and resuspended in synaptosomal buffer (120 mM NaCl, 4.7 mM KCl, 2.2 mM CaCl2, 1.2 mM MgCl2, 25 mM HEPES, 1.2 mM MgSO4, 1.2 mM KH2PO4, 10 mM glucose).
Oxygen consumption studies (oximetry). O2 consumption studies on synaptosomes are carried out. […] Studies were carried out to optimize the concentration of synaptosomal protein required, and to confirm stability and viability of synaptosomes and their mitochondria for up to 6 h.

The subject of experiment [1] is primary neuronal cultures. Nature of the experiment: DHE oxidation (superoxide and/or hydrogen peroxide production) in primary neuronal cultures exposed to ketamine. In kind it is cell-based, mouse.
A further experiment addresses T1, NADPH oxidase (Mus musculus, UniProt Q61093).
T1 sequence (Q61093 1-570): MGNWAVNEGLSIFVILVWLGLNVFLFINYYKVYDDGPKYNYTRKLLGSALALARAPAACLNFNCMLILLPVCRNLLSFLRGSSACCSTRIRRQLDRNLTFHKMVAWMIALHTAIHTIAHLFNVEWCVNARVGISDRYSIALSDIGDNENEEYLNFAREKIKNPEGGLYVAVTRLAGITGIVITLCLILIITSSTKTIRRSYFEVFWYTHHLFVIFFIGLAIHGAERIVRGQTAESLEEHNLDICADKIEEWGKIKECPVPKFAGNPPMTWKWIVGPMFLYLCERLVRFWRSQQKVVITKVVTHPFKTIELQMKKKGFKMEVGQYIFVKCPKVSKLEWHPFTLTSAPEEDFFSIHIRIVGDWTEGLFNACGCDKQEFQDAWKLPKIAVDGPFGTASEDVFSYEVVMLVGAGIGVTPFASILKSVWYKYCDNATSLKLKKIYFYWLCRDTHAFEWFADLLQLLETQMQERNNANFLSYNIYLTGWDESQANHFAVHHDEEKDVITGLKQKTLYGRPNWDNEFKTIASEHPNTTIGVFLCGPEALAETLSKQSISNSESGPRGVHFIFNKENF
T1 sequence (Q61462 1-192 partner): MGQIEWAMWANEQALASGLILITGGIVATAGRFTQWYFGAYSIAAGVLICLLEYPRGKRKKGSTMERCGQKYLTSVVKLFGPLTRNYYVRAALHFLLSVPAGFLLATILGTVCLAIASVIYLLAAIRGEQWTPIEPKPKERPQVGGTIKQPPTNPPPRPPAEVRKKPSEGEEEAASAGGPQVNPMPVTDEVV
Nature of the experiment: EPR superoxide production by forebrain synaptosomes exposed to IL-6. It is filed as biochemical. The settings on record: apocynin 0.4 mM applied 5 min before IL-6.

On to `COc1cc(C(C)=O)ccc1O` [apocynin, 4-hydroxy-3-methoxyacetophenone], for which the “block of NADPH-induced O2 consumption” value with NADPH oxidase (Nox) (200 μM apocynin, synaptosomes, 5 mM NADPH) was over 90%. Besides, the “effect on increased Nox activity in synaptosomes from ketamine treated animals” value with NADPH oxidase (Nox) (apocynin added in vitro) is listed as “inhibited”. The “effect on ketamine-mediated increase in oxidized DHE” value in experiment [1] (co-exposure with ketamine 0.5 μM 24 h, muscimol 10 μM, C3 20 μM, apocynin 0.5 mM) was “significantly reduced”. In experiment [1] (ketamine with 1 μM C3 or 500 μM apocynin for 24 h), the “effect on ketamine-mediated increase in ROS / free radical production (DHE fluorescence)” value is “prevented”. Moreover, the “effect on IL-6-induced increase in superoxide (EPR)” value on NADPH oxidase was “completely blocked”.
